Source: patent US20250059520A1, “SGK1 INHIBITORY COMPOSITIONS AND METHODS” (Arizona Board of Regents on Behalf of the University of …, priority 2021, published 2025)
Ends that are not written are not given here.

Assays:
[1] = test system: isolated adult mouse ventricular myocytes (AMVMs); assay: Uptake, hypertrophic growth and ANP mRNA in AMVMs treated ± PE for 24 h; assay type: cell-based; settings: AMVMs ± PE 24 h, several peptide doses
Procedure: FIGS. 12A to 12E show TAT-SGK1-(Pep) Stops Growth of Myocytes.
(§1) TAT-SGK1-(Pep) inhibits myocyte growth and fibroblast activation: Next, a SGK1-(Pep) peptide was designed and synthesized with an N-terminal TAT sequence to facilitate its direct delivery to cultured cells, and potentially to mice. To test its effectiveness, isolated adult mouse ventricular myocytes (AMVMs) were treated with either vehicle or a FITC-labeled form of the peptide, then imaged to show uptake (FIG. 12A). […] Thus, the TAT-SGK1-(Pep) affects AMVM growth as anticipated. […] Finally, since TGFβ-stimulated SGK1 has been implicated in fibrosis (Artunc F and Lang F. Nephron Physiol. 2014 128:35-9), a major maladaptive aspect of pressure overload cardiac pathology, the effects of the TAT-SGK1-(Pep) on TGFβ-mediated induction of two markers of fibrosis, α-smooth muscle actin (α-SMA) and periostin, was examined in adult mouse ventricular fibroblasts (AMVF). […] These findings underscore the SGK1-specificity of the peptide, as well as the possibility that some of the adaptive effects of the peptide could include dampening inflammasome activation and decreasing fibrosis.

[2] = test system: endogenous SGK1; assay: Rate of endogenous SGK1 degradation in AMVM; assay type: cell-based, mouse
[3] = test system: endogenous SGK1; assay: Rate of endogenous SGK1 degradation in NRVM; assay type: cell-based, rat; settings: degradation dependent on Hrd1
[4] = test system: adult mouse ventricular fibroblasts (AMVF); assay: TGFβ-mediated induction of fibrosis and inflammasome marker mRNAs in AMVF (qRT-PCR); assay type: cell-based; settings: 48 h
Procedure: FIGS. 13A to 13C show effects of TAT-SGK1-(Pep) in AMVFs: TAT-SGK1-(Pep) [P] added to AMVFs at the conc shown±TGFβ. 48 h later cultures analyzed for α-SMA (FIG. 13A), periostin (FIG. 13B), IL1b (FIG. 13C) mRNAs shown by qRT-PCR. n=3 cultures/treatment*$ p<0.05 different from all other values (ANOVA).
as §1

[5] = test system: TAC-induced heart failure with reduced ejection fraction; assay: Heart failure induced by transaortic constriction (TAC) in mice, echocardiography; assay type: in vivo, mouse
Text: Animals were randomly assigned to cohorts and a five-digit identifier number.
FIGS. 18A to 18D show LV mass (FIG. 18A), ejection fraction (FIG. 18B), cardiac stiffening (E/e′) (FIG. 18C), and A wave (FIG. 18D) in mice treated with control peptide, SGK1 peptide, or delayed treatment of SGK1 peptide. The mice were 4-weeks into a 6-week heart failure paradigm induced by transaortic constriction (TAC), a gold standard preclinical model of heart failure with reduced ejection fraction. […] Consistent pressure gradients to confirm standardized severity of the TAC procedure across cohorts is performed 1-week post-TAC via carotid flow Doppler ratios of the inominate to left common carotids.

[6] = molecular target: T1, GILZ (Rattus norvegicus, UniProt Q9EQZ1); assay: FLAG immunoprecipitation of GILZ from NRVM infected with AdV-FLAG-SGK1(122-157); assay type: binding
T1 construct: FLAG IP efficiently pulled down the FLAG-SGK peptide (5, 6) as well as GILZ (7, 8); endogenous in cells; host or cells: NRVM (neonatal rat ventricular myocytes) infected with AdV-Con or AdV-FLAG-SGK1(122-157)
T1 sequence (Q9EQZ1 1-134): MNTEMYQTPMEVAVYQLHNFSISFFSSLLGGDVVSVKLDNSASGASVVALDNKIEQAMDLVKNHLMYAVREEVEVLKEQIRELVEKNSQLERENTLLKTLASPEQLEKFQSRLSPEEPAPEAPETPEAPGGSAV
Text: (§2) FIGS. 11A to 11C show SGK1(122-157) Interrupts SGK1/GILZ Interaction and Decreases Cardiac Myocyte Growth. FIG. 11A illustrates how a small SGK1-related peptide could disrupt SGK1-GILZ interaction, increase SGK1 degradation and reduce cardiac myocyte growth. […] NRVM were infected with AdV-Con or FLAG-SGK-(122-157). […] FLAG IP efficiently pulled down the FLAG-SGK peptide (5, 6) as well as GILZ (7, 8).
(§3) Thus, it is anticipated that AAV9-FLAG-SGK1-(Pep) can increase SGK1 degradation and, thus, blunt pressure overload-induced pathological cardiac hypertrophy and subsequent heart failure in mice, in vivo.

[7] = test system: neonatal rat ventricular myocytes (NRVMs); assay: PE-mediated ANP expression, growth and SGK1 degradation in NRVM with ectopic expression of the SGK1 peptide; assay type: cell-based; settings: NRVM ± AdV-SGK1 peptide
Text: as §2
SGK1 and GILZ were shown herein to be increased in pathological hypertrophic human and mouse hearts. In mice, SGK1 degradation was slowed during pressure overload. Cardiac-specific deletion of SGK1 in mice decreased pressure overload-induced hypertrophy, whereas overexpression of SGK1 increased it. Removing the SGK1 ER-targeting sequence, or overexpressing GILZ decreased SGK1 degradation in neonatal rat ventricular myocytes (NRVMs) and increased growth; GILZ knockdown decreased growth. A 35 amino acid region in SGK1 that interacts with GILZ was identified; ectopic expression of this peptide increased SGK1 degradation and decreased NRVM growth.
as §3

[8] = chronic administration, 4 weeks into 6-week TAC paradigm

Sequence	ANP mRNA [1]	cardiac myocyte remodeling (hypertrophic growth, width to length ratio) [1]	endogenous SGK1 degradation [2]	endogenous SGK1 degradation [3]	TGFβ-mediated induction of periostin mRNA [4]	TGFβ-mediated induction of α-smooth muscle actin (α-SMA) mRNA [4]	mRNA for IL1β, marker of inflammasome activation [4]	TAC-induced left ventricular hypertrophy (LV Mass) [5, 8]	diastolic dysfunction and cardiac stiffening (E/e′) [5, 8]	early indicator of congestion (mitral atrial flow velocity, A wave) [5, 8]	systolic dysfunction (ejection fraction) [5, 8]	toxic effects [5, 8]	cardiac dysfunction and remodeling ([5]; delayed administration starting at 2-weeks post-TAC)	binding to GILZ in IP experiments [6]	PE-mediated ANP expression (ANP mRNA) [7]
GRKKRRQRRRPQVFYAVKVLQKKAILKKKEEKHIMSERNVLLKNVKHP [TAT-SGK1-(Pep)]	dose-dependent decrease	dose-dependent decrease	accelerate endogenous SGK1 degradation	accelerate endogenous SGK1 degradation	effectively inhibited induction	effectively inhibited induction	inhibited	conferring protection	conferring protection	conferring protection	conferring protection	no signs of untoward toxic effects	shows signs of cardioprotection and reversal of early cardiac dysfunction and remodeling	–	–
VFYAVKVLQKKAILKKKEEKHIMSERNVLLKNVKHP (not fully specified) [SGK1-(Pep), FLAG-tagged amino acids 122-157 of SGK1, ectopically expressed from an adenovirus (AdV)]	–	–	–	–	–	–	–	–	–	–	–	–	–	could bind to GILZ	blunted PE-mediated ANP expression
